Data: patent US11952349B2, “Anti-cancer nuclear hormone receptor-targeting compounds” (Nuvation Bio Inc., priority 2019, dated 2024)
pKi: −log10 of the molar value.

Biological target: T1, AR in LNCaP cytosol (Homo sapiens, UniProt P10275, T878A)
T1 construct: AR in LNCaP cytosol was used; endogenous in cells; host or cells: LNCaP cells (cytosol)
T1 sequence (P10275 1-920 T878A): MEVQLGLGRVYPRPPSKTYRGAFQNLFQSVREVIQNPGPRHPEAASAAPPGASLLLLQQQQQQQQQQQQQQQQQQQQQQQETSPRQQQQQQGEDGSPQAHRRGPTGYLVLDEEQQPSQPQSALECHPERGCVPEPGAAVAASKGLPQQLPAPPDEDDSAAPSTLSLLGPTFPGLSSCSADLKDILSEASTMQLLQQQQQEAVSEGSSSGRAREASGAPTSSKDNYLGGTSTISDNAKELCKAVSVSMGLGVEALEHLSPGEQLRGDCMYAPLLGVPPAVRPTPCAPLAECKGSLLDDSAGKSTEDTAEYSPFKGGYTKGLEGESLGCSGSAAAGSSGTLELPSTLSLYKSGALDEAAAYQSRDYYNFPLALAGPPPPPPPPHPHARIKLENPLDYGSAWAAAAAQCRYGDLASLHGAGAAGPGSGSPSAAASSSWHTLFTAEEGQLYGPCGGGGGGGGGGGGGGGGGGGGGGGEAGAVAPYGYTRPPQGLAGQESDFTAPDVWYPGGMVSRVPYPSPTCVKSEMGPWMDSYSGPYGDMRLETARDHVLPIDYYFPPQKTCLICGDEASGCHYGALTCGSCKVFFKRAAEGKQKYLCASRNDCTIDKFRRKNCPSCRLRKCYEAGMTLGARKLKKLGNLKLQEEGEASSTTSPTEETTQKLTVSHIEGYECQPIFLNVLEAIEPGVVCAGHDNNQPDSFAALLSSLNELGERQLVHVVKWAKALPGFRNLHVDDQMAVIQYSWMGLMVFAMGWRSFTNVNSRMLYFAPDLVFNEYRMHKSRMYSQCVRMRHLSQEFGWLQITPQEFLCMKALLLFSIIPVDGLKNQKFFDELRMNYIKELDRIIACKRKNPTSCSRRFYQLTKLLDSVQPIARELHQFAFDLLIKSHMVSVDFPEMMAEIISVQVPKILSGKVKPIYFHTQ
Assay: AR binding assay, 3H-methyltrienolone (Biological Example 1)
Conditions: Table 6, in vitro NHR binding; Ki=IC50/(1+[L]/Kd), [L] 1 nM, Kd 0.332 nM
Description: The following methods are for evaluating the in vitro biology properties of the test articles. • a. RBC HotSpot Poly(ADP-ribose) Polymerases 1 (PARP1) and Poly(ADP-ribose) Polymerases 2 (PARP2) Assays: The assay was conducted at Reaction Biology Corporation (RBC; Malvern, PA). The assay principle is radioisotope-based filter binding assay where incorporation of radioisotope-labeled NAD^+ into the substrate captured on filter is detected after washout free NAD^+. Data were analyzed using Excel and GraphPad Prism software for IC50 curve fits. Each assay was conducted with PJ34 as a positive control. […] After incubation for 2 hrs at room temperature, the reaction mixture was filtered and washed with 0.75% phosphoric acid for radioactivity detection. • ii. […] After incubation for 2 hrs at room temperature, the reaction mixture was filtered and washed with 0.75% phosphoric acid for radioactivity detection. • b. […] IC50 s were determined using 8 concentrations/compound. […] Radioactivity is counted using a TriCarb 2910 TR scintillation counter (PerkinElmer). […] The Ki values were further calculated using the equation below where [L] is the radioligand concentration (1 nM) used in this study. […]

Cn1ncnc1C1c2n[nH]c(=O)c3cc(F)cc(c23)N[C@@H]1c1ccc(NC(=O)CCCCCO[C@@H]2CC[C@H]3[C@@H]4CC[C@H]5CCCC[C@]5(C)[C@H]4CC[C@]23C)cc1 (stereo partly drawn) [Compound 1128, 6-((5R,8R,9S,10S,13S,14S,17R)-10,13-dimethylhexadecahydro-1H-cyclopenta[a]phenanthren-17-yloxy)-N-(4-((8S)-5-fluoro-9-(1-methyl-1H-1,2,4-triazol-5-yl)-3-oxo-3,7,8,9-tetrahydro-2H-pyrido[4,3,2-de]phthalazin-8-yl)phenyl)hexanamide]
pKi: < 5.13
